From US6800101B2, “Deactivatable biocides for hydrocarbonaceous products” (priority 2001, dated 2004)

Assays:
bacterial inoculum = test: Neutralization of biocides with other nitrogen compounds; format: cell-based; details: for microbial growth: n-C16; for neutralizing 10 ppm of gluteraldehyde: two moles per mole gluteraldehyde
Excerpt: The different nitrogen-containing compounds evaluated include the following:

alkane degrading culture = test: Evaluation of biocides: growth inhibition on FT diesel and ALAD diesel; format: cell-based; on microbial growth: key: −: No Growth; +: Growth (White Unless Otherwise Indicated)
Procedure: Growth Media: A standard minimal media containing only inorganic nutrients required for bacterial growth was used. The medium used to supply inorganic micronutrients to the growing culture of alkane degrading organisms consisted of 0.1 g/L MgSO4.7H2O, 0.5 g/L NaNO3, 0.02 millimolar FeSO4 and 0.63 g/L K2HPO4 and 0.19 g/L KH2PO4 to achieve a pH of 7 to 7.3.
Test Conditions: 90 ml of growth media and 10 ml of either FT diesel or low sulfur (ALAD) diesel was added to 250 ml flasks. […] In addition to 2 alkynes, glutaraldehyde (glutaric dialdehyde 50%), was tested. The following summarizes the test conditions:
Sterile control (media boiled prior to adding FT or ALAD, not inoculated)
Inculated control (no inhibitor)
100 ppm inhibitor (on a total test volume basis or 1000 ppm in diesel)
1% inhibitor (on a total test volume basis or 10% in diesel).
After inoculation, the flasks were place on a shaker-table (135 rpm) at room temperature and observed daily.

bacteria = format: cell-based
in vivo = format: in vivo; details: Cyprinodon variegatus (sheepshead minnow), in vivo
Procedure: (§1) […]. EPA/600/4-90/027F Washington D.C. section 2.02, paragraph 1.) conducted at Pacific Eco-Risk Laboratories, Martinez, Calif.
(§2) LOEC is the Lowest Observable Effect Concentration and is defined as the minimum concentration where mortality is observed for the test species. […] LC-50, the concentration that will cause mortality of 50% of the organisms tested within 96 h, is a calculated value based on all observations.
(§3) The solutions were mixed for 48 hours prior to the start of the bioassays. The solutions were diluted to perform bioassays at starting glutaraldehyde concentrations of 100, 50, 37.5, 25, and 10, 5 mg/L

[1] = system: Larval Sheepshead Minnow (Cyprinodon variegatus); test: in vivo; format: in vivo; details: for LOEC / NOEC: Cyprinodon variegatus (sheepshead minnow), in vivo, 96 h
Procedure: as §1, §2, §3

microbial growth = test: Evaluation of lower amounts of water; format: cell-based; details: 100 ppm; 90% Fischer-Tropsch diesel fuel, 10% minimal media; after 16 days
Excerpt: In this example, an experiment was done using a lower amount of water. 90% Fischer-Tropsch diesel fuel was mixed with 10% minimal media. One flask was used as a control and the other contained 100 ppm […].

[2] = 10 ppm gluteraldehyde + two moles nitrogen compound per mole, day 0
[3] = 10 ppm gluteraldehyde + two moles nitrogen compound per mole, day 1
[4] = 10 ppm gluteraldehyde + two moles nitrogen compound per mole, day 2
[5] = 10 ppm gluteraldehyde + two moles nitrogen compound per mole, day 6
[6] = 10 ppm gluteraldehyde + two moles nitrogen compound per mole, day 7
[7] = 10 ppm gluteraldehyde + two moles nitrogen compound per mole, day 9
[8] = 10 ppm gluteraldehyde + two moles nitrogen compound per mole, day 13
[9] = 10 ppm gluteraldehyde + two moles nitrogen compound per mole, day 20
[10] = control: nitrogen compound without gluteraldehyde, day 0
[11] = control: nitrogen compound without gluteraldehyde, day 1
[12] = control: nitrogen compound without gluteraldehyde, day 2
[13] = control: nitrogen compound without gluteraldehyde, day 6
[14] = control: nitrogen compound without gluteraldehyde, day 7
[15] = control: nitrogen compound without gluteraldehyde, day 9
[16] = control: nitrogen compound without gluteraldehyde, day 13
[17] = control: nitrogen compound without gluteraldehyde, day 20
[18] = LA (ALAD) Diesel + 1 Wt %, Day 0
[19] = LA (ALAD) Diesel + 1 Wt %, Day 1
[20] = LA (ALAD) Diesel + 1 Wt %, Day 5
[21] = LA (ALAD) Diesel + 1 Wt %, Day 7
[22] = LA (ALAD) Diesel + 1 Wt %, Day 8
[23] = LA (ALAD) Diesel + 1 Wt %, Day 19
[24] = LA (ALAD) Diesel + 100 ppm, Day 0
[25] = LA (ALAD) Diesel + 100 ppm, Day 1
[26] = LA (ALAD) Diesel + 100 ppm, Day 5
[27] = LA (ALAD) Diesel + 100 ppm, Day 7
[28] = LA (ALAD) Diesel + 100 ppm, Day 8
[29] = LA (ALAD) Diesel + 100 ppm, Day 19

For `OCCNCCO` [DEA, Diethanolamine], the “toxicity of the nitrogen-containing compound to microbial growth” value (from here on “toxicity”) (bacterial inoculum) was “not excessively toxic”, the microbial growth (bacterial inoculum; [2]) was “−” and the microbial growth (bacterial inoculum; [3]) was “+”. The microbial growth (bacterial inoculum; [4]) was “+”, the microbial growth (bacterial inoculum; [5]) was “+” and the microbial growth (bacterial inoculum; [6]) was “+”. For the same molecule, the microbial growth (bacterial inoculum; [7]) was “+”, the microbial growth (bacterial inoculum; [8]) was “+” and the microbial growth (bacterial inoculum; [9]) was “+”. For the same molecule, the microbial growth (bacterial inoculum; [10]) was “−”, the microbial growth (bacterial inoculum; [11]) was “−” and the microbial growth (bacterial inoculum; [12]) was “−”. For the same molecule, the microbial growth (bacterial inoculum; [13]) was “+”, the microbial growth (bacterial inoculum; [14]) was “+” and the microbial growth (bacterial inoculum; [15]) was “+”. For the same molecule, the microbial growth (bacterial inoculum; [16]) was “+”, the microbial growth (bacterial inoculum; [17]) was “+” and the “neutralizing 10 ppm of gluteraldehyde” value (bacterial inoculum) was “effective”.

For `O=CCCCC=O` [G, glutaraldehyde], the effectiveness as biocide (alkane degrading culture; ALAD diesel fuel) was “effective at a lower concentration”, the microbial growth (alkane degrading culture; FT Diesel + 1 Wt %, Day 0) was “−” and the microbial growth (alkane degrading culture; FT Diesel + 1 Wt %, Day 1) was “−”. For the same molecule, the microbial growth (alkane degrading culture; FT Diesel + 1 Wt %, Day 5) was “−”, the microbial growth (alkane degrading culture; FT Diesel + 1 Wt %, Day 7) was “−” and the microbial growth (alkane degrading culture; FT Diesel + 1 Wt %, Day 8) was “−”. For the same molecule, the microbial growth (alkane degrading culture; FT Diesel + 1 Wt %, Day 19) was “−”, the microbial growth (alkane degrading culture; FT Diesel + 100 ppm, Day 0) was “−” and the microbial growth (alkane degrading culture; FT Diesel + 100 ppm, Day 1) was “−”. The microbial growth (alkane degrading culture; FT Diesel + 100 ppm, Day 5) was “−”, the microbial growth (alkane degrading culture; FT Diesel + 100 ppm, Day 7) was “−” and the microbial growth (alkane degrading culture; FT Diesel + 100 ppm, Day 8) was “−”. The microbial growth (alkane degrading culture; FT Diesel + 100 ppm, Day 19) was “+”, the effectiveness as biocide (alkane degrading culture; Fischer-Tropsch diesel fuel) was “effective at a lower concentration” and the microbial growth (alkane degrading culture; [18]) was “−”. The microbial growth (alkane degrading culture; [19]) was “−”, the microbial growth (alkane degrading culture; [20]) was “−” and the microbial growth (alkane degrading culture; [21]) was “−”. For the same molecule, the microbial growth (alkane degrading culture; [22]) was “−”, the microbial growth (alkane degrading culture; [23]) was “−” and the microbial growth (alkane degrading culture; [24]) was “−”. The microbial growth (alkane degrading culture; [25]) was “−”, the microbial growth (alkane degrading culture; [26]) was “−” and the microbial growth (alkane degrading culture; [27]) was “−”. The microbial growth (alkane degrading culture; [28]) was “−”, the microbial growth (alkane degrading culture; [29]) was “−” and the microbial growth (bacteria) was “no growth”. It also gave an LC50 at 96 h (in vivo) greater than 100 µg/mL, an LOEC [1] of 25 mg/L and an NOEC [1] of 13 mg/L. For the same molecule, the LC50 ([1]; second experiment, Glutaraldehyde 100 mg/L, MEA 125 mg/L, molar ratio 1:2, mixed 48 hours) was greater than 100 µg/mL.

In the case of `C#CCCCC` [H, 1-hexyne], the microbial growth (microbial growth) is reported as “no growth”, the microbial growth (alkane degrading culture; FT Diesel + 1 Wt %, Day 0) is reported as “−” and the microbial growth (alkane degrading culture; FT Diesel + 1 Wt %, Day 1) is reported as “−”. For the same molecule, the microbial growth (alkane degrading culture; FT Diesel + 1 Wt %, Day 5) was “−”, the microbial growth (alkane degrading culture; FT Diesel + 1 Wt %, Day 7) was “−” and the microbial growth (alkane degrading culture; FT Diesel + 1 Wt %, Day 8) was “−”. The microbial growth (alkane degrading culture; FT Diesel + 1 Wt %, Day 19) was “−”, the microbial growth (alkane degrading culture; FT Diesel + 100 ppm, Day 0) was “−” and the microbial growth (alkane degrading culture; FT Diesel + 100 ppm, Day 1) was “−”. For the same molecule, the microbial growth (alkane degrading culture; FT Diesel + 100 ppm, Day 5) was “+”, the microbial growth (alkane degrading culture; FT Diesel + 100 ppm, Day 7) was “+” and the microbial growth (alkane degrading culture; FT Diesel + 100 ppm, Day 8) was “+”. For the same molecule, the microbial growth (alkane degrading culture; FT Diesel + 100 ppm, Day 19) was “+”, the microbial growth (alkane degrading culture; [18]) was “−” and the microbial growth (alkane degrading culture; [19]) was “−”. The microbial growth (alkane degrading culture; [20]) was “−”, the microbial growth (alkane degrading culture; [21]) was “−” and the microbial growth (alkane degrading culture; [22]) was “−”. For the same molecule, the microbial growth (alkane degrading culture; [23]) was “−”, the microbial growth (alkane degrading culture; [24]) was “−” and the microbial growth (alkane degrading culture; [25]) was “−”. For the same molecule, the microbial growth (alkane degrading culture; [26]) was “+”, the microbial growth (alkane degrading culture; [27]) was “+” and the microbial growth (alkane degrading culture; [28]) was “+”. For the same molecule, the microbial growth (alkane degrading culture; [29]) was “+”.

In the case of `NCCO` [MEA, Monoethanolamine], the “toxicity” value (bacterial inoculum) is reported as “not excessively toxic”, the microbial growth (bacterial inoculum; [2]) is reported as “−” and the microbial growth (bacterial inoculum; [3]) is reported as “−”. For the same molecule, the microbial growth (bacterial inoculum; [4]) was “−”, the microbial growth (bacterial inoculum; [5]) was “+” and the microbial growth (bacterial inoculum; [6]) was “+”. For the same molecule, the microbial growth (bacterial inoculum; [7]) was “+”, the microbial growth (bacterial inoculum; [8]) was “+” and the microbial growth (bacterial inoculum; [9]) was “+”. For the same molecule, the microbial growth (bacterial inoculum; [10]) was “−”, the microbial growth (bacterial inoculum; [11]) was “−” and the microbial growth (bacterial inoculum; [12]) was “−”. For the same molecule, the microbial growth (bacterial inoculum; [13]) was “−”, the microbial growth (bacterial inoculum; [14]) was “+” and the microbial growth (bacterial inoculum; [15]) was “+”. The microbial growth (bacterial inoculum; [16]) was “+”, the microbial growth (bacterial inoculum; [17]) was “+” and the “neutralizing 10 ppm of gluteraldehyde” value (bacterial inoculum) was “effective”. It also gave an LOEC [1] of 1700 mg/L and an NOEC [1] of 1000 mg/L.

In the case of `C#CCO` [P, Propargyl alcohol], the microbial growth (alkane degrading culture; FT Diesel + 1 Wt %, Day 0) is reported as “−”, the microbial growth (alkane degrading culture; FT Diesel + 1 Wt %, Day 1) is reported as “−” and the microbial growth (alkane degrading culture; FT Diesel + 1 Wt %, Day 5) is reported as “−”. The microbial growth (alkane degrading culture; FT Diesel + 1 Wt %, Day 7) was “−”, the microbial growth (alkane degrading culture; FT Diesel + 1 Wt %, Day 8) was “−” and the microbial growth (alkane degrading culture; FT Diesel + 1 Wt %, Day 19) was “−”. For the same molecule, the microbial growth (alkane degrading culture; FT Diesel + 100 ppm, Day 0) was “−”, the microbial growth (alkane degrading culture; FT Diesel + 100 ppm, Day 1) was “−” and the microbial growth (alkane degrading culture; FT Diesel + 100 ppm, Day 5) was “−”. For the same molecule, the microbial growth (alkane degrading culture; FT Diesel + 100 ppm, Day 7) was “+”, the microbial growth (alkane degrading culture; FT Diesel + 100 ppm, Day 8) was “+” and the microbial growth (alkane degrading culture; FT Diesel + 100 ppm, Day 19) was “+”. The microbial growth (alkane degrading culture; [18]) was “−”, the microbial growth (alkane degrading culture; [19]) was “−” and the microbial growth (alkane degrading culture; [20]) was “−”. The microbial growth (alkane degrading culture; [21]) was “−”, the microbial growth (alkane degrading culture; [22]) was “−” and the microbial growth (alkane degrading culture; [23]) was “−”. The microbial growth (alkane degrading culture; [24]) was “−”, the microbial growth (alkane degrading culture; [25]) was “−” and the colour of growth (alkane degrading culture; [26]) was “Yellow”. For the same molecule, the microbial growth (alkane degrading culture; [26]) was “+”, the colour of growth (alkane degrading culture; [27]) was “Yellow” and the microbial growth (alkane degrading culture; [27]) was “+”. The colour of growth (alkane degrading culture; [28]) was “Yellow”, the microbial growth (alkane degrading culture; [28]) was “+” and the colour of growth (alkane degrading culture; [29]) was “Yellow”. For the same molecule, the microbial growth (alkane degrading culture; [29]) was “+”.

In the case of `Nc1ccccc1` [aniline, Aniline], the “toxicity” value (bacterial inoculum) is reported as “excessively toxic”, the microbial growth (bacterial inoculum; [2]) is reported as “−” and the microbial growth (bacterial inoculum; [3]) is reported as “−”. For the same molecule, the microbial growth (bacterial inoculum; [4]) was “−”, the microbial growth (bacterial inoculum; [5]) was “−” and the microbial growth (bacterial inoculum; [6]) was “−”. For the same molecule, the microbial growth (bacterial inoculum; [7]) was “−”, the microbial growth (bacterial inoculum; [8]) was “−” and the microbial growth (bacterial inoculum; [9]) was “−”.

In the case of `CCNCC` [diethylamine, Diethylamine], the “toxicity” value (bacterial inoculum) is reported as “not excessively toxic”, the microbial growth (bacterial inoculum; [2]) is reported as “−” and the microbial growth (bacterial inoculum; [3]) is reported as “−”. For the same molecule, the microbial growth (bacterial inoculum; [4]) was “−”, the microbial growth (bacterial inoculum; [5]) was “+” and the microbial growth (bacterial inoculum; [6]) was “+”. For the same molecule, the microbial growth (bacterial inoculum; [7]) was “+”, the microbial growth (bacterial inoculum; [8]) was “+” and the microbial growth (bacterial inoculum; [9]) was “+”. For the same molecule, the microbial growth (bacterial inoculum; [10]) was “−”, the microbial growth (bacterial inoculum; [11]) was “−” and the microbial growth (bacterial inoculum; [12]) was “−”. The microbial growth (bacterial inoculum; [13]) was “+”, the microbial growth (bacterial inoculum; [14]) was “+” and the microbial growth (bacterial inoculum; [15]) was “+”. For the same molecule, the microbial growth (bacterial inoculum; [16]) was “+”, the microbial growth (bacterial inoculum; [17]) was “+” and the “neutralizing 10 ppm of gluteraldehyde” value (bacterial inoculum) was “effective”.
